{"source": "patent US10004785B2", "about": "“LKKTET and/or LKKTNT peptide compositions which are lyophilized or in a form capable of being lyophilized” (RegeneRX Biopharmaceuticals, Inc., priority 2005, dated 2018)", "key": {"[1]": {"tested_on": "Human corneal epithelial cells", "test": "colorimetric BrdU incorporation assay (cell proliferation)", "format": "cell-based", "conditions": "1 mcg/ml Tβ4, 3 and 24 hour time points", "method": "(§1) Human corneal epithelial cells at approximately 80% confluence were treated with 0%, 0.001%, 0.01%, or 0.1% BAK for 15 minutes. After 3 and 24 hours of recovery in culture medium, cell proliferation was measured using a colorimetric BrdU incorporation assay. Apoptosis was measured using a colorimetric annexin-based cell death assay. […] To further assess the ability of Tb4 to prevent apoptosis, corneal epithelial cells were treated with 0.01% BAK±Tβ4 over a 5 day time course."}, "[2]": {"tested_on": "Human corneal epithelial cells", "test": "colorimetric annexin-based cell death assay (apoptosis)", "conditions": "1 mcg/ml Tβ4, 3 and 24 hour time points", "method": "as §1"}}}
{"substance": "Thymosin beta 4 (SDKPDMAEIEKFDKSKLKKTETQEKNPLPSKETIEQEKQAGES; Thymosin beta-4; UniProt P62328 2-44, looked up) [Tβ4, a 43 amino acid, 4.9 kDa ubiquitous polypeptide originally isolated from the thymus]", "values": [{"measurement": "cell proliferation of BAK-treated corneal epithelial cells", "setting": "[1]", "result": "not promoted"}, {"measurement": "apoptosis of BAK-treated corneal epithelial cells", "setting": "[2]", "result": "not inhibited"}]}
